Data from US7855213B2 (AstraZeneca AB, priority 2006, dated 2010).
Counter-ions that a name gives are not always drawn.

The compounds below were run against T1, human β-Secretase (Homo sapiens, UniProt P56817) (assay: TR-FRET assay).
T1 construct: The soluble part of the human β-Secretase (AA 1-AA 460) was cloned; made in house
T1 sequence (P56817 22-460): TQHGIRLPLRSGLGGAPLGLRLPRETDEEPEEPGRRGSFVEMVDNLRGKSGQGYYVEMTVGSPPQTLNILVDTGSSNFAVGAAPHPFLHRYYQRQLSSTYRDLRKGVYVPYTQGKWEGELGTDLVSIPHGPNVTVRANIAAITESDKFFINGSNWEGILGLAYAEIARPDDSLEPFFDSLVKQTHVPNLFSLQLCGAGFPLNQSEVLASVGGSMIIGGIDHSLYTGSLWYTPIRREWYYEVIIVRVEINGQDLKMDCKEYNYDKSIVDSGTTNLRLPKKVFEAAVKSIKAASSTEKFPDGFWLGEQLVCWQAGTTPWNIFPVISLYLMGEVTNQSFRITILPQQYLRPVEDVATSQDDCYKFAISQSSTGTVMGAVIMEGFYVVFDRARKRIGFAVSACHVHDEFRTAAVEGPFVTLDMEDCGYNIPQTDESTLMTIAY
Format: biochemical
Work on NC1=NC(c2cccc(-c3cncc(F)c3)c2)(c2ccncc2F)c2ccccc21 (stereo not drawn) [Example 71, 1-(3-Fluoropyridin-4-yl)-1-[3-(5-fluoropyridin-3-yl)phenyl]-1H-isoindol-3-amine 0.5 acetate] yielded an IC50 of 190 nM.
NC1=NC(c2ccc(OC(F)(F)F)cc2)(c2cccc(-c3cncc(F)c3)c2)c2ccccc21 (stereo not drawn) [Example 56, 1-[3-(5-Fluoropyridin-3-yl)phenyl]-1-[4-(trifluoromethoxy)phenyl]-1H-isoindol-3-amine 0.75 acetate] was tested, and the IC50 was 200 nM.
In the case of NC1=NC(c2ccc(OS(=O)(=O)C(F)(F)F)cc2)(c2ccc(F)c(-c3cncnc3)c2)c2ccccc21 (stereo not drawn) [Example 136, 4-[3-Amino-1-(4-fluoro-3-pyrimidin-5-ylphenyl)-1H-isoindol-1-yl]phenyl trifluoromethanesulfonate], the IC50 is reported as 457 nM.
With COc1cncc(-c2cccc(C3(c4ccncc4)N=C(N)c4ccc(F)cc43)c2)c1 (stereo not drawn) [Example 85, 6-Fluoro-1-[3-(5-methoxypyridin-3-yl)phenyl]-1-pyridin-4-yl-1H-isoindol-3-amine] the IC50 was 45 nM.
For NC1=NC(c2cccc(-c3cccnc3F)c2)(c2ccc3c(c2)OCCO3)c2ccccc21 (stereo not drawn) [Example 15, 3-(2,3-Dihydrobenzo[b][1,4]dioxin-6-yl)-3-(3-(2-fluoropyridin-3-yl)phenyl)-3H-isoindol-1-amine trifluoroacetate], the IC50 was 748 nM.
For CS(=O)(=O)Oc1ccc(C2(c3cccc(-c4cccnc4F)c3)N=C(N)c3ccccc32)cc1 (stereo not drawn) [Example 37, Methanesulfonic acid 4-{3-amino-1-[3-(2-fluoro-pyridin-3-yl)-phenyl]-1H-isoindol-1-yl}-phenyl ester trifluoroacetate], the IC50 was 569 nM.
With NC1=NC(c2cccc(-c3cccnc3)c2)(c2ccc3c(c2)OCCO3)c2ccccc21 (stereo not drawn) [Example 17, 3-(2,3-Dihydrobenzo[b][1,4]dioxin-6-yl)-3-(3-(pyridin-3-yl)phenyl)-3H-isoindol-1-amine trifluoroacetate] the IC50 was 1520 nM.
N#Cc1cncc(-c2cccc(C3(c4ccncc4F)N=C(N)c4ccccc43)c2)c1 (stereo not drawn) [Example 102, 5-{3-[3-Amino-1-(3-fluoropyridin-4-yl)-1H-isoindol-1-yl]phenyl}nicotinonitrile] gave an IC50 of 310 nM.
With CC(C)c1cc(C2(c3cccc(-c4cccnc4F)c3)N=C(N)c3ccccc32)ccn1 (stereo not drawn) [Example 115, 1-[3-(2-Fluoropyridin-3-yl)phenyl]-1-(2-isopropylpyridin-4-yl)-1H-isoindol-3-amine] the IC50 was 210 nM.
Work on COc1ccc(C2(c3cccc(-c4cc(OC)cc(OS(C)(=O)=O)c4)c3)N=C(N)c3ccccc32)cc1 (stereo not drawn) [Example 14, Methanesulfonic acid 3′-[3-amino-1-(4-methoxy-phenyl)-1H-isoindol-1-yl]-5-methoxy-biphenyl-3-yl ester trifluoroacetate] yielded an IC50 of 153 nM.
For CS(=O)(=O)Oc1ccc(C2(c3cccc(-c4cncnc4)c3)N=C(N)c3ccccc32)cc1 (stereo not drawn) [Example 38, Methanesulfonic acid 4-[3-amino-1-(3-pyrimidin-5-yl-phenyl)-1H-isoindol-1-yl]-phenyl ester trifluoroacetate], the IC50 was 706 nM.
NC1=NC(c2ccc(OC(F)(F)F)cc2)(c2cccc(-c3cncnc3)c2)c2ccccc21 (stereo not drawn) [Example 57, 1-(3-Pyrimidin-5-ylphenyl)-1-[4-(trifluoromethoxy)phenyl]-1H-isoindol-3-amine 0.25 acetate] gave an IC50 of 180 nM.
Work on COc1ccc(C2(c3ccc(O)c(-c4cccnc4)c3)N=C(N)c3ccccc32)cc1 (stereo not drawn) [Example 7, 4-[3-Amino-1-(4-methoxy-phenyl)-1H-isoindol-1-yl]-2-pyridin-3-yl-phenol trifluoroacetate] yielded an IC50 of 86 nM.
For COc1ccc(C2(c3cccc(-c4cccnc4)c3)N=C(N)c3ccccc32)cc1 (stereo not drawn) [Example 9, 3-(4-Methoxy-phenyl)-3-(3-pyridin-3-yl-phenyl)-3H-isoindol-1-ylamine trifluoroacetate], the IC50 was 154 nM.
COc1cc(OS(C)(=O)=O)cc(-c2cccc(C3(c4ccc5c(c4)OCCO5)N=C(N)c4ccccc43)c2)c1 (stereo not drawn) [Example 26, 5′-(3-Amino-1-(2,3-dihydrobenzo[b][1,4]dioxin-6-yl)-1H-isoindol-1-yl)-5-methoxybiphenyl-3-yl methanesulfonate trifluoroacetate] was tested, and the IC50 was 1280 nM.
Work on CC1(c2cccc(-c3cccnc3F)c2)N=C(N)c2ccccc21 (stereo not drawn) [Example 96, 1-[3-(2-Fluoropyridin-3-yl)phenyl]-1-methyl-1H-isoindol-3-amine acetate] yielded an IC50 of 2200 nM.
In the case of COc1cncc(-c2cccc(C3(c4ccc5c(c4)OCCO5)N=C(N)c4ccccc43)c2)c1 (stereo not drawn) [Example 16, 3-(2,3-Dihydrobenzo[b][1,4]dioxin-6-yl)-3-(3-(5-methoxypyridin-3-yl)phenyl)-3H-isoindol-1-amine trifluoroacetate], the IC50 is reported as 425 nM.
NC1=NC(c2ccncc2)(c2cccc(-c3cccnc3)c2)c2ccccc21 (stereo not drawn) [Example 44, 3-Pyridin-4-yl-3-(3-pyridin-3-yl-phenyl)-3H-isoindol-1-ylamine trifluoroacetate] was tested, and the IC50 was 213 nM.
Compound NC1=NC(c2cccc(-c3cccnc3F)c2)(c2ccncc2F)c2ccccc21 (stereo not drawn) [Example 73, 1-(3-Fluoropyridin-4-yl)-1-[3-(2-fluoropyridin-3-yl)phenyl]-1H-isoindol-3-amine 1.25 acetate] has an IC50 of 130 nM.
Compound NC1=NC(c2ccccc2)(c2ccccc2)c2ccccc21 [Example 1, 3,3-Diphenyl-3H-isoindol-1-ylamine] has an IC50 of 9140 nM.
With NC1=NC(c2ccc(O)cc2)(c2ccc(O)cc2)c2ccccc21 [Example 6, 4,4′-(3-Amino-isoindole-1,1-diyl)-bis-phenol] the IC50 was 3520 nM.
In the case of COc1ccc(C2(c3cccc(Br)c3)N=C(N)c3ccccc32)cc1C (stereo not drawn) [Example 19, 3-(3-Bromo-phenyl)-3-(4-methoxy-3-methyl-phenyl)-3H-isoindol-1-ylamine trifluoroacetate], the IC50 is reported as 1360 nM.
NC1=NC(c2cncc(F)c2)(c2cccc(-c3cccnc3F)c2)c2ccccc21 (stereo not drawn) [Example 124, 1-(5-Fluoropyridin-3-yl)-1-[3-(2-fluoropyridin-3-yl)phenyl]-1H-isoindol-3-amine] gave an IC50 of 560 nM.
In the case of COc1cccc(-c2cccc(C3(c4ccncc4)N=C(N)c4ccccc43)c2)c1 (stereo not drawn) [Example 47, 3-(3′-Methoxy-biphenyl-3-yl)-3-pyridin-4-yl-3H-isoindol-1-ylamine trifluoroacetate], the IC50 is reported as 55 nM.
For CC1(c2cccc(-c3cncc(F)c3)c2)N=C(N)c2ccccc21 (stereo not drawn) [Example 98, 1-[3-(5-Fluoropyridin-3-yl)phenyl]-1-methyl-1H-isoindol-3-amine acetate], the IC50 was 2000 nM.
Work on COc1cc(OS(C)(=O)=O)cc(-c2cccc(C3(c4ccc(OS(C)(=O)=O)cc4)N=C(N)c4ccccc43)c2)c1 (stereo not drawn) [Example 41, Methanesulfonic acid 4-[3-amino-1-(5′-methane-sulfonyloxy-3′-methoxy-biphenyl-3-yl)-1H-isoindol-1-yl]-phenyl ester trifluoroacetate] yielded an IC50 of 575 nM.
COc1ccc(C2(c3cccc(-c4cc(Cl)cc(Cl)c4)c3)N=C(N)c3ccccc32)cc1 (stereo not drawn) [Example 88, 1-(3′,5′-Dichlorobiphenyl-3-yl)-1-(4-methoxyphenyl)-1H-isoindol-3-amine acetate] gave an IC50 of 65 nM.
In the case of COc1ccc(C2(c3cccc(-c4ccccc4C(N)=O)c3)N=C(N)c3ccccc32)cc1 (stereo not drawn) [Example 55, 3′-[3-Amino-1-(4-methoxyphenyl)-1H-isoindol-1-yl]biphenyl-2-carboxamide 0.5 acetate], the IC50 is reported as 2000 nM.
NC1=NC(c2cccc(-c3cncnc3)c2)(c2ccc3c(c2)OCO3)c2ccccc21 (stereo not drawn) [Example 30, 3-Benzo[1,3]dioxol-5-yl-3-(3-pyrimidin-5-ylphenyl)-3H-isoindol-1-ylamine trifluoroacetate] gave an IC50 of 942 nM.
Work on COc1cccc(-c2cccc(C3(c4ccc(OS(C)(=O)=O)cc4)N=C(N)c4ccccc43)c2)c1 (stereo not drawn) [Example 40, Methanesulfonic acid 4-[3-amino-1-(3′-methoxy-biphenyl-3-yl)-1H-isoindol-1-yl]-phenyl ester trifluoroaceate] yielded an IC50 of 570 nM.
COc1ccc(C2(c3cccc(-c4cccnc4)c3)N=C(N)c3ccccc32)cc1C (stereo not drawn) [Example 22, 3-(4-Methoxy-3-methyl-phenyl)-3-(3-pyridin-3-yl-phenyl)-3H-isoindol-1-ylamine trifluoroacetate] gave an IC50 of 145 nM.
In the case of NC1=NC(c2cccc(-c3cncnc3)c2)(c2ccnc(Cl)c2)c2ccccc21 (stereo not drawn) [Example 122, 1-(2-Chloropyridin-4-yl)-1-(3-pyrimidin-5-ylphenyl)-1H-isoindol-3-amine], the IC50 is reported as 160 nM.
In the case of NC1=NC(c2cccc(OS(=O)(=O)C(F)(F)F)c2)(c2ccc(F)c(-c3cccnc3F)c2)c2ccccc21 (stereo not drawn) [Example 135], the IC50 is reported as 269 nM.
In the case of COc1cncc(-c2cccc(C3(c4ccc5c(c4)OCO5)N=C(N)c4ccccc43)c2)c1 (stereo not drawn) [Example 32, 3-Benzo[1,3]dioxol-5-yl-3-[3-(5-methoxy-pyridin-3-yl)-phenyl]3H isoindol-1-ylamine trifluoroacetate], the IC50 is reported as 708 nM.
With COc1ccc(C2(c3ccc(F)c(-c4cccnc4F)c3)N=C(N)c3ccccc32)cc1C (stereo not drawn) [Example 128, 1-[4-Fluoro-3-(2-fluoropyridin-3-yl)phenyl]-1-(4-methoxy-3-methylphenyl)-1H-isoindol-3-amine] the IC50 was 40 nM.
Work on NC1=NC(c2cncc(F)c2)(c2cccc(-c3cncnc3)c2)c2ccccc21 (stereo not drawn) [Example 125, 1-(5-Fluoropyridin-3-yl)-1-(3-pyrimidin-5-ylphenyl)-1H-isoindol-3-amine] yielded an IC50 of 810 nM.
COc1cccc(-c2cccc(C3(c4ccncc4)N=C(N)c4ccccc43)c2)c1F (stereo not drawn) [Example 104, 1-(2′-Fluoro-3′-methoxybiphenyl-3-yl)-1-pyridin-4-yl-1H-isoindol-3-amine] showed an IC50 of 59 nM.
With CCc1cc(C2(c3cccc(-c4cncnc4)c3)N=C(N)c3ccccc32)ccn1 (stereo not drawn) [Example 111, 1-(2-Ethylpyridin-4-yl)-1-(3-pyrimidin-5-ylphenyl)-1H-isoindol-3-amine] the IC50 was 95 nM.
In the case of COc1ncc(C2(c3cccc(-c4cncnc4)c3)N=C(N)c3ccccc32)cn1 (stereo not drawn) [Example 108, 1-(2-Methoxypyrimidin-5-yl)-1-(3-pyrimidin-5-ylphenyl)-1H-isoindol-3-amine], the IC50 is reported as 970 nM.
